Measured values reported in ChEMBL document CHEMBL1201862, “PubChem BioAssay data set” (2004).
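Cells were grown in 96-well plates and exposed to each compound for 48 hours at five concentrations; endpoints were interpolated linearly between bracketing concentrations, or set to the highest concentration if not reached. GI50 is the concentration that inhibits growth by half.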 Active and inactive are the calls of the source. Cut-off read from the data, not from the text of the source: active = GI50 up to about 1.1 µM and inactive = higher.

Assays:
Experiment in all cases: DTP human tumour cell line panel, 48 h
[1] = tested on: SK-MEL-5
[2] = tested on: ACHN
[3] = tested on: COLO 205
[4] = tested on: DMS-273
[5] = tested on: NCI-H23
[6] = tested on: UO-31
[7] = tested on: TK-10
[8] = tested on: OVCAR-8
[9] = tested on: CCRF-CEM
[10] = tested on: NCI-H460
[11] = tested on: SNB-75
[12] = tested on: SF-268
[13] = tested on: SF-539
[14] = tested on: SK-MEL-2
[15] = tested on: KM-20L2
[16] = tested on: OVCAR-3
[17] = tested on: Malme-3M
[18] = tested on: U-251
[19] = tested on: A498
[20] = tested on: SNB-19
[21] = tested on: XF498
[22] = tested on: MOLT-4
[23] = tested on: HOP-62
[24] = tested on: LXFL 529
[25] = tested on: HOP-18
[26] = tested on: SNB-78
[27] = tested on: IGROV-1
[28] = tested on: SK-MEL-28
[29] = tested on: HCC 2998
[30] = tested on: UACC-257
[31] = tested on: RPMI-8226
[32] = tested on: SW-620
[33] = tested on: K562
[34] = tested on: HT-29
[35] = tested on: LOX IMVI
[36] = tested on: A549
[37] = tested on: HL-60
[38] = tested on: KM12
[39] = tested on: OVCAR-5
[40] = tested on: EKVX
[41] = tested on: RXF 393
[42] = tested on: SK-OV-3
[43] = tested on: SF-295
[44] = tested on: HOP-92
[45] = tested on: DMS-114
[46] = tested on: HCT-116
[47] = tested on: DLD-1
[48] = tested on: NCI-H522
[49] = tested on: 786-0

Measured: GI50

COc1ccc2c3c1O[C@]1(C)C34CCN(C)C(C2)C42C=C[C@@]1(OC)c1c(O)ccc(O)c12
inactive: [1] > 100 µM | [2] > 100 µM | [3] > 100 µM | [4] > 100 µM | [5] > 100 µM | [6] > 100 µM | [7] > 100 µM | [8] > 100 µM | [9] > 100 µM | [10] > 100 µM | [11] > 100 µM | [12] > 100 µM | [13] > 100 µM | [14] > 100 µM | [15] > 100 µM | [16] > 100 µM | [17] 64.7 µM | [18] > 100 µM | [19] > 100 µM | [20] > 100 µM | [21] > 100 µM | [22] > 100 µM | [23] > 100 µM | [24] > 100 µM | [25] > 100 µM | [26] 61.8 µM | [27] > 100 µM | [28] > 100 µM | [29] > 100 µM | [30] > 100 µM | [31] > 100 µM | [32] > 100 µM | [33] > 100 µM | [34] > 100 µM | [35] > 100 µM | [36] > 100 µM | [37] 17.8 µM | [38] > 100 µM | [39] > 100 µM | [40] > 100 µM | [41] > 100 µM | [42] > 100 µM | [43] > 100 µM | [44] 59.3 µM | [45] > 100 µM | [46] > 100 µM | [47] > 100 µM | [48] > 100 µM | [49] 95.7 µM
